Data taken from PubChem BioAssay AID1918996 (Molecular Pharmacology Branch, DTP, NCI, 2023).

Tested on: 349418-098-R-PDC complex spheroid growth
Test: Anticancer human tumor 349418-098-R-PDC patient-derived lung adenocarcinoma cell line growth inhibition [AhR]
Settings: for IC50: curve of first compound; for viability, T/C: stronger effect = lower value
In short: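 Complex tumor spheroids co-cultured with HUVEC and human MSC stroma; AhR antagonists tested in combination with standard-of-care and investigational agents. Top concentration at or near clinical Cmax (else 10 microM), half-log dilutions; growth expressed as percent test/control.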

[1] = second compound 0.1 µM, first compound 0.0316 µM
[2] = second compound 0.1 µM, first compound 0.1 µM
[3] = second compound 0.1 µM, first compound 0.316 µM
[4] = second compound 0.1 µM, first compound 1 µM
[5] = second compound 0.1 µM, first compound 3.16 µM
[6] = second compound 0.1 µM, first compound 10 µM
[7] = second compound 0.316 µM, first compound 0.0316 µM
[8] = second compound 0.316 µM, first compound 0.1 µM
[9] = second compound 0.316 µM, first compound 0.316 µM
[10] = second compound 0.316 µM, first compound 1 µM
[11] = second compound 0.316 µM, first compound 3.16 µM
[12] = second compound 0.316 µM, first compound 10 µM
[13] = second compound 1 µM, first compound 0.0316 µM
[14] = second compound 1 µM, first compound 0.1 µM
[15] = second compound 1 µM, first compound 0.316 µM
[16] = second compound 1 µM, first compound 1 µM
[17] = second compound 1 µM, first compound 3.16 µM
[18] = second compound 1 µM, first compound 10 µM
[19] = second compound 3.16 µM, first compound 0.0316 µM
[20] = second compound 3.16 µM, first compound 0.1 µM
[21] = second compound 3.16 µM, first compound 0.316 µM
[22] = second compound 3.16 µM, first compound 1 µM
[23] = second compound 3.16 µM, first compound 3.16 µM
[24] = second compound 3.16 µM, first compound 10 µM
[25] = second compound 10 µM, first compound 0.0316 µM
[26] = second compound 10 µM, first compound 0.1 µM
[27] = second compound 10 µM, first compound 0.316 µM
[28] = second compound 10 µM, first compound 1 µM
[29] = second compound 10 µM, first compound 3.16 µM
[30] = second compound 10 µM, first compound 10 µM
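Note: spheroids exposed to agents for seven days before luminescence viability read.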
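Throughout, for viability, T/C: spheroids also contain HUVEC endothelial cells and human MSC stroma.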

Structure (SMILES)	IC50 (second compound 0.1 µM)	IC50 (second compound 0.316 µM)	IC50 (second compound 1 µM)	IC50 (second compound 3.16 µM)	IC50 (second compound 10 µM)	viability, T/C [1]	viability, T/C [2]	viability, T/C [3]	viability, T/C [4]	viability, T/C [5]	viability, T/C [6]	viability, T/C [7]	viability, T/C [8]	viability, T/C [9]	viability, T/C [10]	viability, T/C [11]	viability, T/C [12]	viability, T/C [13]	viability, T/C [14]	viability, T/C [15]	further results
Nc1ccn(C2OC(CO)C(O)C2(F)F)c(=O)n1 (stereo not given) + Cc1ccccc1N=Nc1ccc(NC(=O)c2ccnn2C)c(C)c1	< 31.6 nM	< 31.6 nM	< 31.6 nM	< 31.6 nM	< 31.6 nM	15.1%	14.6%	13.6%	12.1%	11.3%	8.74%	15.9%	13.5%	14.6%	13.1%	11.2%	9.73%	15.7%	14.8%	15.3%	viability, T/C [16]: 11.7%; viability, T/C [17]: 14.3%; viability, T/C [18]: 11.4%; viability, T/C [19]: 14.9%; viability, T/C [20]: 16.4%; viability, T/C [21]: 13.1%; viability, T/C [22]: 12.7%; viability, T/C [23]: 13%; viability, T/C [24]: 10.1%; viability, T/C [25]: 17.9%; viability, T/C [26]: 17.4%; viability, T/C [27]: 16.7%; viability, T/C [28]: 14.1%; viability, T/C [29]: 13.4%; viability, T/C [30]: 12.2%
O=C(c1cc(Cc2n[nH]c(=O)c3ccccc23)ccc1F)N1CCN(C(=O)C2CC2)CC1 + Cc1ccccc1N=Nc1ccc(NC(=O)c2ccnn2C)c(C)c1	2020 nM	6200 nM	2810 nM	661 nM	1430 nM	81.3%	73.2%	91.4%	62.1%	44.9%	39.6%	98%	89%	108%	64%	66.3%	41.4%	106%	82.4%	69.7%	viability, T/C [16]: 62.8%; viability, T/C [17]: 49.4%; viability, T/C [18]: 39.9%; viability, T/C [19]: 76.9%; viability, T/C [20]: 69.9%; viability, T/C [21]: 63.4%; viability, T/C [22]: 41.8%; viability, T/C [23]: 41.3%; viability, T/C [24]: 43%; viability, T/C [25]: 56.4%; viability, T/C [26]: 53.1%; viability, T/C [27]: 50.9%; viability, T/C [28]: 60.1%; viability, T/C [29]: 38.8%; viability, T/C [30]: 31.4%
